Data taken from patent publication US7563598B2 (Ambergen, Inc., priority 2004, dated 2009).
“Also recorded” adds a separate entry of the source. Read-outs that look alike come from different tables or passages of the source. Square brackets hold non-standard residues; d marks the D form. Peptide text beside a SMILES is read from it. * marks the point of attachment. Nva = CCC[C@H](N)C(=O)O; Cbz = O=C(OCc1ccccc1)*

Experiments:
[1] = test system: proteases in rabbit reticulocyte extract; details: extract pre-treated with inhibitor, then R6; MALDI
Method: In this experiment, protease inhibitors were tested to inhibit the degradation of the peptide R6 (described above). In one experiment, 10 μL of rabbit reticulocyte extract was pre-treated by incubating with a specific protease inhibitor such as ebelactone or 2-LeuLeuNVa-CHO for 10-15 min. Following pretreatment, peptide R6 was added to above translation mix and incubated for 10 min at 30° C. The reaction was terminated by addition of 100 μL of 100 mM EDTA and the solution was immediately applied to the microcolumn containing 1 μL of Sigma ANTI-FLAG beads. The beads were then washed with 50 μL of 20 mM Tris-HCl, pH 7.2 and the bound peptide was eluted with approximately 4 μL of matrix solution (CHCA/acetonitrile/TFA) directly onto a MALDI plate. In the control experiment, extract pre-treated with buffer was used and processed as described above.
2 μL of the above protease inhibitor solution was added to 10 μL of the translation mixture.

protein synthesis = experiment: Effect of protease inhibitors on protein synthesis in the translation system; assay type: biochemical
[2] = test system: proteolysis in PURE I reconstituted E. coli translation system; assay type: biochemical
[3] = test system: protease activity of E. coli translation extract; experiment: Mass spectrometry assay of inhibition of R6 degradation in E. coli translation extract; details: extract pre-treated with inhibitor, then R6; MALDI
Method: In this experiment, protease inhibitors were tested to inhibit the degradation of the peptide R6 (described above). […] Following pretreatment, peptide R6 was added to above translation mix and incubated for 10 min at 30° C. The reaction was terminated by addition of 100 μL of 100 mM EDTA and the solution was immediately applied to the microcolumn containing 1 μL of Sigma ANTI-FLAG beads. The beads were then washed with 50 μL of 20 mM Tris-HCl, pH 7.2 and the bound peptide was eluted with approximately 4 μL of matrix solution (CHCA/acetonitrile/TFA) directly onto a MALDI plate. In the control experiment, extract pre-treated with buffer was used and processed as described above. Similar experiments were carried out using E. coli translation extract.

[4] = test system: protein synthesis in rabbit reticulocyte lysate; assay type: biochemical
[5] = rabbit reticulocyte lysate (RRL extract); details: 30° C., up to 5 min
[6] = Solution B of the PURE kit (Post-Genome Institute); details: 37 degrees, up to 20 minutes (or 10 minutes)
[7] = PURE I reconstituted E. coli translation system, all components except the DNA; details: 37° C., up to 15 min
[8] = zonally purified E. coli ribosomes
[9] = heat denatured rabbit reticulocyte extract (by boiling at 100° C. for 5 min in presence of SDS); details: 30° C.
[10] = test system: rabbit reticulocyte lysate, wheat germ extract, E. coli S30 extract; details: within several minutes after incubation with the translation mixtures
Method: 100 picomoles of the synthetic R6 peptide in 1 microliter of water is added to 5 ul of a test solution and incubated for 20 minutes (or 10 minutes) at 37 degrees. 50 ul of PBS is then added to the test mixture and the resulting solution is passed over a 1 microliter anti-FLAG microcolumn (which recognizes the epitope sequence at the N terminus of the R6 peptide). The column is washed with 50 ul of deionized water and the bound peptides are eluted directly onto the maldi plate using 1 microliter of CHCA matrix in 50% acetonitrile/0.2% TFA/49.8% deionized water. The intact R6 peptide and degradation products are detected by Maldi-Tof mass spectrometry in positive ion linear mode.

Method for Amber-PURE: In order to remove the protease activity from solution B, 100 ul of solution B was added to 200 ul of deionized water and spun through a YM100 Microcon filter with a 100 kDa cut-off (Millipore, Inc) at 10,000 rpm for 5 minutes in a benchtop microfuge at room temperature. […] A 10 ul aliquot contains 3 ul of diluted and filtered solution B, 7 ul of solution A and 10 picomoles of zonally purified ribosomes.
In this example, the protease-depleted system is used to produce the reference peptide (R6) by in vitro translation using DNA coding for the R6 peptide.

CCC[C@@H](C=O)NC(=O)[C@H](CC(C)C)NC(=O)[C@H](CC(C)C)NC(=O)OCc1ccccc1 [2-LeuLeuNvaCHO] (Cbz-Leu-Leu-[Nva]-aldehyde)
inhibition of R6 degradation (protease activity) in rabbit reticulocyte extract [1]: significant reduction in protease activity

NCCc1ccc(S(=O)(=O)F)cc1 [AEBSF]
inhibition of protein synthesis (protein synthesis; if used together with "Pefabloc protector"): could also inhibit protein synthesis
inhibition of R6 proteolysis in PURE I ([2]; inhibitor pre-incubated 15-30 min, R6 15 min at 37° C.): excellent inhibition

CC(C)C[C@H](NC(=O)[C@@H](NC(=O)N[C@@H](Cc1ccccc1)C(=O)O)[C@@H]1CCN=C(N)N1)C(=O)N[C@H](C=O)Cc1ccccc1 [Chymostatin]
inhibition of protease activity (R6 degradation) in E. coli translation extract [3]: only weakly inhibited

C[C@@H]1C[C@@H]([C@H](O)CC2CC(=O)NC(=O)C2)C(=O)[C@@H](C)C1 [cycloheximide]
inhibition of protein synthesis [4]: completely inhibited

Ebelactone
inhibition of R6 degradation (protease activity) in rabbit reticulocyte extract [1]: only weak protease inhibition

MDYKDDDDKRRRRRRFFF
cleaved bond [5]: Phe-Phe, minor, 1 min; also recorded: Arg-Arg, 1 min
cleaved bond [6]: R-R
fragment found [7]: MDYKDDDDKRRRRR, major, 15 min
not cleaved [8]: devoid of protease activity

MYTDIEMNRLGK
not cleaved [9]: retains complete peptide signal

R6: protease-sensitive peptide, sequence MDYKDDDDKRRRRRRFFF (SEQ ID NO:152), FLAG epitope at the N-terminus (N-terminal FLAG epitope)
peptide products obtained by in vitro translation (PURE): correspond to degradation products
degradation of sub-nanomolar amounts of peptide [10]: complete degradation
peptide product obtained by in vitro translation (Amber-PURE): intact patent peptide
intact peptide after incubation with PURE I mixture ([2]; 15 min, 37° C., no inhibitor): disappearance of the intact R6 peptide

aprotinin
inhibition of protein synthesis (protein synthesis): inhibit protein synthesis
inhibition of protease activity (R6 degradation) in E. coli translation extract [3]: significant inhibition
